Test [1] concerns mitochondrial complex I respiration in MELAS neuronal cybrid cells. In words: Complex I linked respiration in permeabilized MELAS cybrid cells (Oroboros oxygraph). It is filed as cell-based, human. The conditions noted are these: 48 h exposure, low glucose medium (0.5 g/l). The protocol:
FIG. 6: Effect of DSF on mitochondrial complex I respiration in MELAS neuronal cybrid cells after 48 h exposure in low glucose medium (0.5 g/l).
FIG. 7: Effect of DSF at 10 nM after 48 h exposure on mitochondrial complex I (left) and complex IV (right) respiration in permeabilized MELAS neuronal cybrid cells, in low glucose medium (0.5 g/l).
Cellular oxygen consumption was measured at 37° C. in MELAS cybrid cells treated vs untreated mutant cells on a high-resolution oxygraph (Oroboros), as described elsewhere (Desquiret-Dumas et al., 2012).
Briefly treated and untreated mutant cells were trypsinized and the pellet was resuspended in the respiratory buffer (KH2PO4 10 mM, mannitol 300 mM, KCl 10 mM, MgCl2 5 mM, pH 7.4) containing 15 μg/million cells of digitonin. Cells were incubated at room temperature during 2.5 minutes and the digitonin action was stopped by adding five volumes of the respiration buffer supplemented with 1 mg/ml of BSA. […] The oxygen consumption was measured in state II (5 mM malate+pyruvate), state III (5 mM malate+pyruvate+1.5 mM ADP+0.5 mM NAD or 5 mM succinate+10 μM rotenone+1.5 mM ADP+0.5 mM NAD), state IV (8 μg/ml oligomycin) and maximal cytochrome c oxidase capacity (4 mM ascorbate+0.2 mM TMPD). After oxygraphic measurement, […] of cell suspension was removed from the chamber and the protein concentration was measured using bicinchoninic acid.

In another test the test system is Δcoa6 cells. The test can be described thus: Growth in liquid non-fermentable medium with increasing DSF concentrations. Type of test: cell-based. Particulars: Saccharomyces cerevisiae, 40 h, read-out: toxic dose (IC50). The protocol:
Exponentially growing cells were inoculated in fresh non-fermentable YPG or YPE media supplemented, or not, with increasing DSF concentrations.
More precisely, the shy1-G137R and Δcoa6 cells have been grown for 40 h in liquid medium containing 2% glycerol and 0.1% galactose as carbon source and increasing concentrations of DSF (100 nM to 6 μM). The A29G and fmc1Δ cells have been grown for 48 h in liquid medium containing 2% glycerol as carbon source and increasing concentrations of DSF (50 nM to 5 μM). The taz1Δ and sym1Δ cells have been grown for 48 h in rich liquid medium containing 2% ethanol/0.2% galactose and 2% glycerol/2% ethanol as a carbon source, respectively, and increasing concentrations of DSF (100 nM to 9 μM).

The IC50 is the concentration needed to halve the response being measured. As for `CCN(CC)C(=S)SSC(=S)N(CC)CC` [DSF, 1-(diethylthiocarbamoyldisulfanyl)-N,N-diethyl-methanethioamide], the “effect on complex I linked respiration” value was “increases complex I linked respiration” in test [1] (FIG. 6, various concentrations) and “increases mitochondrial complex I” in test [1] (FIG. 7, 10 nM, permeabilized cells). For the same molecule, the 50% inhibitory concentration (IC50) in the test on Δcoa6 cells is 3.1 µM.

The values are drawn from patent publication US20220241223A1, “USE OF DISULFIRAM OR ITS DERIVATIVES FOR THE TREATMENT OF MITOCHONDRIAL DISEASES OR DYSFUNCTION” (Universite D'angers, priority 2019, published 2022).
